These compounds were tested against MYT1 protein (Homo sapiens (Human), UniProt Q99640) (assay: Test for binding to ATP binding site of MYT1 (Kinase Tracer 178 / Eu-Anti-GST antibody TR-FRET)). Conditions: ATP binding site of MYT1, 30 minutes at room temperature.
Sequence of MYT1 protein (Q99640 whole entry): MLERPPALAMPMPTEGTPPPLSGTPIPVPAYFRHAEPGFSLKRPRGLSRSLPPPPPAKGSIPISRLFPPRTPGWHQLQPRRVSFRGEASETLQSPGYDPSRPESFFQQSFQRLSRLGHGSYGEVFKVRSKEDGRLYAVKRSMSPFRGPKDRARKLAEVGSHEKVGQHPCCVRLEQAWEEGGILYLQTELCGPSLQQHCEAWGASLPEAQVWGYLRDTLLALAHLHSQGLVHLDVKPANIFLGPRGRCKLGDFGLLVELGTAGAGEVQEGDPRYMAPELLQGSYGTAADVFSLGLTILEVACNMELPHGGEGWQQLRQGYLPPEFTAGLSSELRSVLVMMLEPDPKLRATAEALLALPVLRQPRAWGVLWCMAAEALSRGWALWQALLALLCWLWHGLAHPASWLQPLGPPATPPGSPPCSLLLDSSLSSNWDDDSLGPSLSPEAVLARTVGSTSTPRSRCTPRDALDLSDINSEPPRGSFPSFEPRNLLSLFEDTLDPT

Compared with `CCC(C)c1cc2c(-c3ccc(F)c4[nH]ncc34)c(N)c(=O)[nH]c2c2cccnc12` (stereo not drawn) [Compound C109, 3-Amino-6-butan-2-yl-4-(7-fluoro-1H-indazol-4-yl)-1H-1,7-phenanthrolin-2-one], `CCC(CC)c1cc2c(-c3ccc(F)c4[nH]ncc34)c(N)c(=O)[nH]c2c2cccnc12` [Compound C108, 3-Amino-4-(7-fluoro-1H-indazol-4-yl)-6-pentan-3-yl-1H-1,7-phenanthrolin-2-one] is 8-fold higher in IC50: 4.6 nM for the first, 37 nM for the second.

Compared with `CN(C)C(=O)Cc1cc2c(-c3ccc(F)c4[nH]ncc34)c(N)c(=O)[nH]c2c2cccnc12` [Compound C93, 2-[3-Amino-4-(7-fluoro-1H-indazol-4-yl)-2-oxo-1H-1,7-phenanthrolin-6-yl]-N,N-dimethylacetamide], `CP(C)(=O)c1cc2c(-c3ccc(F)c4[nH]ncc34)c(N)c(=O)[nH]c2c2cccnc12` [Compound C110, 3-Amino-6-dimethylphosphoryl-4-(7-fluoro-1H-indazol-4-yl)-1H-1,7-phenanthrolin-2-one] is 2.3-fold lower in IC50: 32 nM for the first, 14 nM for the second.

Going from `O=c1[nH]c2ccccc2c(-c2cccc3[nH]ncc23)c1O` [Compound E2, 3-Hydroxy-4-(1H-indazol-4-yl)-1H-quinolin-2-one] to `Nc1c(-c2cccc3[nH]ncc23)c2cc(Cl)ccc2[nH]c1=O` [Compound A43, 3-Amino-6-chloro-4-(1H-indazol-4-yl)-1H-quinolin-2-one], the IC50 falls from 840 nM to 48 nM (18-fold).

Compared with `Nc1c(-c2ccc(F)c3[nH]ncc23)c2cc(C3CC3)c3cc(Cl)ccc3c2[nH]c1=O` [Compound B14, 3-Amino-8-chloro-6-cyclopropyl-4-(7-fluoro-1H-indazol-4-yl)-1H-benzo[h]quinolin-2-one], `Cn1ncc2c(C3CC3)cc3c(-c4ccc(F)c5[nH]ncc45)c(N)c(=O)[nH]c3c21` [Compound I3, 7-Amino-4-cyclopropyl-6-(7-fluoro-1H-indazol-4-yl)-1-methyl-9H-pyrazolo[4,3-h]quinolin-8-one] is 2.2-fold lower in IC50: 18 nM for the first, 8 nM for the second. The second is the more potent here.

`Cc1c(C)c2c(-c3cc(F)c(F)c4[nH]ncc34)c(N)c(=O)[nH]c2c2cccnc12` [Compound C216, 3-Amino-4-(6,7-difluoro-1H-indazol-4-yl)-5,6-dimethyl-1H-1,7-phenanthrolin-2-one] and `Nc1c(-c2cc(F)c(F)c3[nH]ncc23)c2cc(Cl)c3ncccc3c2[nH]c1=O` [Compound C198, 3-Amino-6-chloro-4-(6,7-difluoro-1H-indazol-4-yl)-1H-1,7-phenanthrolin-2-one] are within 1.5-fold of each other in IC50: 3.4 nM for the first, 3.1 nM for the second.

Compared with `Nc1c(-c2ccc(F)c3[nH]ncc23)c2cc(C3CC3)c3ncsc3c2[nH]c1=O` [Compound K3, 7-Amino-4-cyclopropyl-6-(7-fluoro-1H-indazol-4-yl)-9H-[1,3]thiazolo[4,5-h]quinolin-8-one], `N#CC1CC(c2cc3c(-c4ccc(F)c5[nH]ncc45)c(N)c(=O)[nH]c3c3cccnc23)C1` (stereo not drawn) [Compound C176, 3-[3-Amino-4-(7-fluoro-1H-indazol-4-yl)-2-oxo-1H-1,7-phenanthrolin-6-yl]cyclobutane-1-carbonitrile] is 24-fold lower in IC50: 50 nM for the first, 2.1 nM for the second.

Compared with `CC(C)Oc1cc2c(-c3ccc(F)c4[nH]ncc34)c(N)c(=O)[nH]c2c2nccnc12` [Compound G15, 8-Amino-7-(7-fluoro-1H-indazol-4-yl)-5-propan-2-yloxy-10H-pyrido[2,3-f]quinoxalin-9-one], `CC[C@H](C)Oc1cc2c(-c3ccc(F)c4[nH]ncc34)c(N)c(=O)[nH]c2c2cccnc12` [Compound C34, 3-Amino-6-[(2S)-butan-2-yl]oxy-4-(7-fluoro-1H-indazol-4-yl)-1H-1,7-phenanthrolin-2-one] is 2.3-fold higher in IC50: 1.6 nM for the first, 3.7 nM for the second.

First: COCC(F)(F)COc1cc2c(-c3ccc(F)c4[nH]ncc34)c(N)c(=O)[nH]c2c2cccnc12 [Compound C26, 3-Amino-6-(2,2-difluoro-3-methoxypropoxy)-4-(7-fluoro-1H-indazol-4-yl)-1H-1,7-phenanthrolin-2-one]
Second: CCCOc1cc2c(-c3ccc(F)c4[nH]ncc34)c(N)c(=O)[nH]c2c2cccnc12 [Compound C60, 3-Amino-4-(7-fluoro-1H-indazol-4-yl)-6-propoxy-1H-1,7-phenanthrolin-2-one]
The IC50 of the first is 2.7-fold higher: 2.3 nM for the first, 0.85 nM for the second.

Compared with `Nc1c(-c2ccc(Cl)c3[nH]ncc23)c2cc(Cl)cc(Cl)c2[nH]c1=O` [Compound A20, 3-Amino-6,8-dichloro-4-(7-chloro-1H-indazol-4-yl)-1H-quinolin-2-one], `CC(C)c1cc(Cl)cc2c(-c3ccc(Cl)c4[nH]ncc34)c(N)c(=O)[nH]c12` [Compound A19, 3-Amino-6-chloro-4-(7-chloro-1H-indazol-4-yl)-8-propan-2-yl-1H-quinolin-2-one] is 50-fold higher in IC50: 12 nM for the first, 600 nM for the second.

Going from `Nc1c(-c2ccc(F)c3[nH]ncc23)c2cc(N3CCC(N4CCCC4)CC3)c3ncccc3c2[nH]c1=O` [Compound C119, 3-Amino-4-(7-fluoro-1H-indazol-4-yl)-6-(4-pyrrolidin-1-ylpiperidin-1-yl)-1H-1,7-phenanthrolin-2-one] to `Nc1c(-c2ccc(F)c3[nH]ncc23)c2cc(N3CCOCC3)c3ncccc3c2[nH]c1=O` [Compound C122, 3-Amino-4-(7-fluoro-1H-indazol-4-yl)-6-morpholin-4-yl-1H-1,7-phenanthrolin-2-one 2,2,2-trifluoroacetate], the IC50 rises from 2.2 nM to 4.5 nM (2-fold). The first is the more potent here.

First: Nc1c(-c2ccc(F)c3[nH]ncc23)c2cc(Br)c3ccccc3c2[nH]c1=O [Compound B21, 3-Amino-6-bromo-4-(7-fluoro-1H-indazol-4-yl)-1H-benzo[h]quinolin-2-one]
Second: COc1cc2c(-c3ccc(F)c4[nH]ncc34)c(N)c(=O)[nH]c2c2ncccc12 [Compound D18, 3-Amino-4-(7-fluoro-1H-indazol-4-yl)-6-methoxy-1H-1,10-phenanthrolin-2-one]
The IC50 of the first is 80-fold higher: 20 nM for the first, 0.25 nM for the second.

Going from `Nc1c(-c2ccc(F)c3[nH]ncc23)c2cc(OCCC(F)F)c3ncccc3c2[nH]c1=O` [Compound C32, 3-Amino-6-(3,3-difluoropropoxy)-4-(7-fluoro-1H-indazol-4-yl)-1H-1,7-phenanthrolin-2-one] to `C[C@@H](F)COc1cc2c(-c3ccc(F)c4[nH]ncc34)c(N)c(=O)[nH]c2c2cccnc12` [Compound C61, (R)-3-amino-4-(7-fluoro-1H-indazol-4-yl)-6-(2-fluoropropoxy)-1,7-phenanthrolin-2(1H)-one], the IC50 falls from 3.5 nM to 1.7 nM (2.1-fold).

Going from `Cc1ccc2[nH]ncc2c1-c1c(N)c(=O)[nH]c2ccc(Cl)cc12` [Compound A63, 3-Amino-6-chloro-4-(5-methyl-1H-indazol-4-yl)-1H-quinolin-2-one] to `Nc1c(-c2ccc3nc[nH]c3c2)c2cc(Cl)ccc2[nH]c1=O` [Compound A48, 3-Amino-4-(3H-benzimidazol-5-yl)-6-chloro-1H-quinolin-2-one], the IC50 rises from 710 nM to 5300 nM (7.5-fold). The first is the more potent here.

First: CO[C@@H](C)COc1cc2c(-c3ccc(F)c4[nH]ncc34)c(N)c(=O)[nH]c2c2cccnc12 [Compound C45, 3-Amino-4-(7-fluoro-1H-indazol-4-yl)-6-[(2S)-2-methoxypropoxy]-1H-1,7-phenanthrolin-2-one]
Second: CC(C)(C)c1cc2c(-c3ccc(F)c4[nH]ncc34)c(N)c(=O)[nH]c2c2cccnc12 [Compound C225, 3-Amino-6-(tert-butyl)-4-(7-fluoro-1H-indazol-4-yl)-1H-1,7-phenanthrolin-2-one]
The IC50 of the first is 280-fold lower: 3.6 nM for the first, 1000 nM for the second. The first is the more potent here.

First: Nc1c(-c2cccc(C(F)F)c2)c2cc(Cl)ccc2[nH]c1=O [Compound A51, 3-Amino-6-chloro-4-[3-(difluoromethyl)phenyl]-1H-quinolin-2-one]
Second: Nc1c(-c2ccc(F)c3[nH]ncc23)c2cc(N3CCC(F)(F)C3)c3ncccc3c2[nH]c1=O [Compound C115, 3-Amino-6-(3,3-difluoropyrrolidin-1-yl)-4-(7-fluoro-1H-indazol-4-yl)-1H-1,7-phenanthrolin-2-one]
The IC50 of the first is 730-fold higher: 2700 nM for the first, 3.7 nM for the second. The second is the more potent here.

Compared with `Nc1c(-c2ccc(Cl)c3[nH]ncc23)c2cc(OCCCF)c(Cl)cc2[nH]c1=O` [Compound A14, 3-Amino-7-chloro-4-(7-chloro-1H-indazol-4-yl)-6-(3-fluoropropoxy)-1H-quinolin-2-one], `Nc1c(-c2ccc(Cl)c3[nH]ncc23)c2cc(OCC3CC3)c(Cl)cc2[nH]c1=O` [Compound A13, 3-Amino-7-chloro-4-(7-chloro-1H-indazol-4-yl)-6-(cyclopropylmethoxy)-1H-quinolin-2-one] is 8.6-fold higher in IC50: 2.1 nM for the first, 18 nM for the second. The first is the more potent here.

Compared with `CN1CCN(c2cc3c(-c4cc(F)c(F)c5[nH]ncc45)c(N)c(=O)[nH]c3c3cccnc23)CC1` [Compound C209, 3-Amino-4-(6,7-difluoro-1H-indazol-4-yl)-6-(4-methylpiperazin-1-yl)-1H-1,7-phenanthrolin-2-one], `C=Cc1cc2c(-c3cc(F)c(F)c4[nH]ncc34)c(N)c(=O)[nH]c2c2cccnc12` [Compound C204, 3-Amino-4-(6,7-difluoro-1H-indazol-4-yl)-6-ethenyl-1H-1,7-phenanthrolin-2-one] is 6.7-fold higher in IC50: 1.5 nM for the first, 10 nM for the second. The first is the more potent here.

First: Nc1c(-c2ccc(F)c3[nH]ncc23)c2cc(N3CCCC3=O)c3ncccc3c2[nH]c1=O [Compound C112, 3-Amino-4-(7-fluoro-1H-indazol-4-yl)-6-(2-oxopyrrolidin-1-yl)-1H-1,7-phenanthrolin-2-one]
Second: Nc1c(-c2ccc(F)c3[nH]ncc23)c2cc(C3=COCC3)c3ncccc3c2[nH]c1=O [Compound C94, 3-Amino-6-(2,3-dihydrofuran-4-yl)-4-(7-fluoro-1H-indazol-4-yl)-1H-1,7-phenanthrolin-2-one]
The IC50 of the first is 9.3-fold higher: 78 nM for the first, 8.4 nM for the second.

First: Nc1c(-c2cc(F)c(F)c3[nH]ncc23)c2cc(OCC3(F)CC3)c3ncccc3c2[nH]c1=O [Compound C71, 3-Amino-4-(6,7-difluoro-1H-indazol-4-yl)-6-[(1-fluorocyclopropyl)methoxy]-1H-1,7-one]
Second: N#Cc1cc2c(-c3ccc(C#N)c4[nH]ncc34)c(N)c(=O)[nH]c2c2cccnc12 [Compound C149, 3-Amino-4-(7-cyano-1H-indazol-4-yl)-2-oxo-1H-1,7-phenanthroline-6-carbonitrile]
The IC50 of the first is 220-fold lower: 1.7 nM for the first, 380 nM for the second. The first is the more potent here.

With `Cc1cc2c(-c3nccc4[nH]ncc34)c(N)c(=O)[nH]c2c2cccnc12` [Compound C223, 3-Amino-6-methyl-4-(1H-pyrazolo[4,3-c]pyridin-4-yl)-1H-1,7-phenanthrolin-2-one] the IC50 was 750 nM.

Source: patent US20260062412A1, “NITROGEN-CONTAINING HETEROCYCLIC COMPOUND HAVING MYT1 INHIBITORY ACTIVITY” (CHUGAI SEIYAKU KABUSHIKI KAISHA, priority 2023, published 2026)
